Key:
[1] = tested on: NIH3T3 cell; experiment: Inhibition of NIH3T3 cell proliferation (CellTiter-Glo); type: cell-based; settings: Mus musculus, 72 hours, 0.5% FBS
[2] = target: TGFβRI kinase ALK5 (Homo sapiens (Human), UniProt P36897); experiment: Inhibition of TGFβRI kinase ALK5 activity (TGFβRI kinase assay kit, ADP-Glo); type: biochemical; settings: ATP 50 μM; read-out: IC50 of inhibition effect on TGFβRI kinase ALK5 activity
Outline: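 Kinase reaction: 2 ng/μL enzyme in Tris pH 7.5, MgCl2, BSA buffer with 50 μM ATP and 0.2 μg/μL substrate peptide, 2.5 h at 27 °C. ADP formation read by ADP-Glo luminescence over 3-fold compound dilutions; IC50 calculated from signal versus concentration.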

TGFβRI kinase ALK5, sequence (P36897 34-503): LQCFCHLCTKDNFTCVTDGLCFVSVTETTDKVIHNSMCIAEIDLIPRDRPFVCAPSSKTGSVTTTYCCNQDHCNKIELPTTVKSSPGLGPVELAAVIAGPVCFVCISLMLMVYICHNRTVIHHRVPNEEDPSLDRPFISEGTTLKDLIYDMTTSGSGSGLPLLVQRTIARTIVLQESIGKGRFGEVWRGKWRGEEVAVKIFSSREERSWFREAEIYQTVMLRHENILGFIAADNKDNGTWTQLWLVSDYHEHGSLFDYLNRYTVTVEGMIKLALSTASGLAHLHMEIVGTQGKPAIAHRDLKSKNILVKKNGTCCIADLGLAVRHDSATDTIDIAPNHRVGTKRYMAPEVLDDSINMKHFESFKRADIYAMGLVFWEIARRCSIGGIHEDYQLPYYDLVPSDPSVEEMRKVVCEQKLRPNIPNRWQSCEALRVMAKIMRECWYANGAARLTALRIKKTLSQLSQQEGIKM

IC50 [2] | Compound | IC50 [1]
9 nM | Cc1cccc(-c2nc3n(c2-c2ccc4nccc(C(N)=O)c4c2)[C@H]2CC[C@@H]3C2)n1 [Example 1-1, 6-((5S,8R)-2-(6-Methylpyridin-2-yl)-5,6,7,8-tetrahydro-5,8-methanoimidazo[1,2-a]pyridin-3-yl)quinoline-4-carboxamide] | 89 nM
3 nM | Cc1cccc(-c2nc3n(c2-c2ccc4nnc(C(N)=O)n4c2)[C@H]2CC[C@@H]3C2)n1 [Example 2-1, 6-((5S,8R)-2-(6-Methylpyridin-2-yl)-5,6,7,8-tetrahydro-5,8-methanoimidazo[1,2-a]pyridin-3-yl)[1,2,4]triazolo[4,3-a]pyridine-3-carboxamide] | 44 nM
4 nM | Cc1cccc(-c2nc3n(c2-c2ccnc(-c4ccc(S(C)(=O)=O)cc4)c2)[C@H]2CC[C@@H]3C2)n1 [Example 3-1, (5S,8R)-2-(6-Methylpyridin-2-yl)-3-(2-(4-(methylsulfonyl)phenyl)pyridin-4-yl)-5,6,7,8-tetrahydro-5,8-methanoimidazo[1,2-a]pyridine] | 28 nM
26 nM | NC(=O)c1ccnc2ccc(-c3c(-c4ccc(F)cn4)nc4n3[C@H]3CC[C@@H]4C3)cc12 [Example 39-1, 6-((5S,8R)-2-(5-Fluoropyridin-2-yl)-5,6,7,8-tetrahydro-5,8-methanoimidazo[1,2-a]pyridin-3-yl)quinoline-4-carboxamide] | 88 nM
